Numbers after ± are expanded uncertainties.
Test: excess molar enthalpy (molar enthalpy of mixing); xn = mol fraction of the nth substance listed
Conditions: 298.15 K, 101 kPa, Liquid, Flow calorimetry

## CCC#CCC [3-hexyne] + CCCOC(C)=O
x2 = 0.0968
  excess molar enthalpy: 0.044 ± 0.01 kJ/mol
x2 = 0.202
  excess molar enthalpy: 0.0777 ± 0.01 kJ/mol
x2 = 0.3025
  excess molar enthalpy: 0.113 ± 0.01 kJ/mol
x2 = 0.4063
  excess molar enthalpy: 0.143 ± 0.01 kJ/mol
x2 = 0.4979
  excess molar enthalpy: 0.158 ± 0.01 kJ/mol
x2 = 0.5956
  excess molar enthalpy: 0.147 ± 0.01 kJ/mol
x2 = 0.7045
  excess molar enthalpy: 0.112 ± 0.01 kJ/mol
x2 = 0.7995
  excess molar enthalpy: 0.0763 ± 0.01 kJ/mol
x2 = 0.8928
  excess molar enthalpy: 0.0422 ± 0.01 kJ/mol

## C#CCCCC [1-hexyne] + CCCOC(C)=O
x2 = 0.1079
  excess molar enthalpy: -0.127 ± 0.01 kJ/mol
x2 = 0.1967
  excess molar enthalpy: -0.199 ± 0.01 kJ/mol
x2 = 0.3032
  excess molar enthalpy: -0.254 ± 0.01 kJ/mol
x2 = 0.395
  excess molar enthalpy: -0.276 ± 0.01 kJ/mol
x2 = 0.4373
  excess molar enthalpy: -0.278 ± 0.01 kJ/mol
x2 = 0.5003
  excess molar enthalpy: -0.274 ± 0.01 kJ/mol
x2 = 0.595
  excess molar enthalpy: -0.253 ± 0.01 kJ/mol
x2 = 0.6575
  excess molar enthalpy: -0.232 ± 0.01 kJ/mol
x2 = 0.6989
  excess molar enthalpy: -0.214 ± 0.01 kJ/mol
x2 = 0.7967
  excess molar enthalpy: -0.159 ± 0.01 kJ/mol
x2 = 0.8992
  excess molar enthalpy: -0.0857 ± 0.01 kJ/mol

## CC#CCCC [2-hexyne] + CCCOC(C)=O
x2 = 0.1094
  excess molar enthalpy: 0.0445 ± 0.01 kJ/mol
x2 = 0.204
  excess molar enthalpy: 0.0726 ± 0.01 kJ/mol
x2 = 0.3153
  excess molar enthalpy: 0.092 ± 0.01 kJ/mol
x2 = 0.4179
  excess molar enthalpy: 0.104 ± 0.01 kJ/mol
x2 = 0.5044
  excess molar enthalpy: 0.102 ± 0.01 kJ/mol
x2 = 0.5938
  excess molar enthalpy: 0.0899 ± 0.01 kJ/mol
x2 = 0.7075
  excess molar enthalpy: 0.0657 ± 0.01 kJ/mol
x2 = 0.7983
  excess molar enthalpy: 0.045 ± 0.01 kJ/mol
x2 = 0.8927
  excess molar enthalpy: 0.027 ± 0.01 kJ/mol

From the NIST ThermoML archive (doi:10.1016/j.fluid.2010.10.022)
